In patent US20260248872A1, “WITHANIA SOMNIFERA COMPOSITION FOR IMPROVING MEMORY AND COGNITION” (ARJUNA NATURAL PRIVATE LIMITED, priority 2023, published 2026):

Assays:
Type in all cases: in vivo, rat
[1] = tested on: male SD rats; assay: Morris Water Maze (MWM), scopolamine-induced amnesia; conditions: scopolamine 0.6 mg/kg i.p., Ashwagandha extract 100 mg/kg, Piracetam 200 mg/kg, mean
Procedure: (§1) Twenty-four male SD rats were divided into four groups comprising of 6 rats in each group. The animals were treated as per the following details: • Group 1: Normal control (0.5% Polysorbate 80; 10 ml/kg) • Group 2: Untreated control (Scopolamine; 0.6 mg/kg i.p.) • Group 3: Piracetam—200 mg/kg+Scopolamine 0.6 mg/kg i.p. • Group 4: Ashwagandha extract (Sample 4)—100 mg/kg+Scopolamine 0.6 mg/kg i.p.
(§2) The vehicle/extract/standard was administered daily for 10 consecutive days. Habituation to swimming was conducted on day 6 of the experiment. Scopolamine was injected 30 minutes after the vehicle/extract/standard to the designated groups. The following behavioural test was conducted at the end of the treatment by using Elevated plus maze apparatus, Y maze model and Cooks pole climbing method.
The MWM consists of a circular pool (180 cm in diameter and 60 cm in height) with a featureless inner surface. The circular pool was filled with water (23±1° C.) up to a height of 40 cm. The pool was divided into four quadrants of equal area. The escape platform was centered in one of the four quadrants. The day before the training experiments (day 6), animals were habituated to swim training for 60 s in the absence of the platform. The animals were treated with vehicle/extract/standard drug for 6 days. On day 7, 30 min after the administration of vehicle/extract/standard drug, scopolamine (0.6 mg/kg, i.p.) was injected. Training session was started 30 min after scopolamine administration. The rats were given four trial sessions each day for four consecutive days (day 7-10), with an inter-trial interval of 15 min, and the escape latencies were recorded. Once the rat located the platform, it was permitted to remain on it for 15 s to observe the vital clues. […] On day 11, the probe test was performed by removing the platform from the pool and a cut-off time of 60 s was kept for exploring. The time spent by the animal in the target quadrant was recorded. The higher value of the time spent in quadrant indicate better retention ability as the animal remembered the position of the platform.

[2] = tested on: male SD rats; assay: Y-Maze model, scopolamine-induced amnesia; conditions: scopolamine 0.6 mg/kg i.p., Ashwagandha extract 100 mg/kg, Piracetam 200 mg/kg, Mean ± SEM (n = 6)
Procedure: as §1, §2
Y-Maze model—The treatment was started (as per the groups mentioned) for animals from the day 1 and continues up to day 8. […] Briefly, each time animals were placed just inside arm B facing away from the center and allowed to move through apparatus for 8 min, while being monitored by tracking system. […] Each arm entry (defined as all four paws entering arm) was scored and recorded. Animals were returned to home cage and numbers of fecal pellets were counted in the Y maze and data was recorded. […]

[3] = tested on: male SD rats; assay: Elevated plus maze, transfer latency, scopolamine-induced amnesia; conditions: scopolamine 0.6 mg/kg i.p., Ashwagandha extract 100 mg/kg, Piracetam 200 mg/kg, 10 days, Mean ± SEM (n = 6)
Procedure: as §1, §2
The elevated plus-maze consists of two open arms and two closed arms (50×10×40 cm each) were elevated to a height of 50 cm. The rats were placed individually at the end of an open arm facing away from the central platform, and the time taken by them to move from there to either of the close arm transfer latency was recorded. […] The rats were allowed to explore the maze for another 10 seconds and then return to the home cage. […] On the 10th day Standard and test substances were administered orally 30 mins before scopolamine injection transfer latency was recorded.

[4] = tested on: male SD rats; assay: Cooks pole climbing test, conditioned avoidance, scopolamine-induced amnesia; conditions: scopolamine 0.6 mg/kg i.p., Ashwagandha extract 100 mg/kg, Piracetam 200 mg/kg, Mean ± SEM (n = 6)
Procedure: as §1, §2
Pole climbing test: Rats were trained in such a way that the animal had to climb the pole (shock free zone) within 30 s to avoid a shock. The shock was preceded by a buzzer that lasted for 15 s. The animals were trained to climb the pole at the sound of the buzzer (conditioned avoidance response). At particular intervals, 20 trials were given for each animal and average of the shock avoidance and mistakes were recorded. Trained animals were assayed by conditioned avoidance responses.

NC(=O)CN1CCCC1=O [Piracetam]
Time to reach escape platform on training days ([1]; MWM Day 7): 74.25 s
Time to reach escape platform on training days ([1]; MWM Day 8): 47.33 s
Time to reach escape platform on training days ([1]; MWM Day 9): 9.83 s
Time to reach escape platform on training days ([1]; MWM Day 10): 5.25 s
Number of Arm entries [2]: 5.00 ± 0.89
Retention Latency [2]: 2.07 ± 0.46 min
Transfer Latency [3]: 7.00 ± 0.89 s
Avoidance/Escape latency [4]: 6.00 ± 0.89 s
